From patent publication US7632815B2, “Use of calmodulin kinase II inhibitors to treat myocardial dysfunction in structural heart disease” (Vanderbilt University, priority 2001, dated 2009)
Entries after “also recorded” stand apart in the source; their conditions may differ.

What was measured:
CaMKII [1] = assay: CaMKII activity assay in heart homogenate with syntide 2; type: in vivo, mouse
Method: CaMKII activity assays: CaMKII activity was assayed in AC3-I mice and littermate controls from whole heart (ventricular) homogenate with syntide 2-a synthetic substrate with ˜50 fold selectivity for CaMKII over CaMKIV,^9 using our previously published methods.^1

transgenic mice = assay: Baseline echocardiography of transgenic mice; type: in vivo, mouse
[2] = tested on: mice after myocardial infarction surgery; assay: Echocardiography 3 weeks after myocardial infarction surgery; type: in vivo, mouse; details: for LV internal diameter (LVID) during diastole / LV posterior wall (LVPW) wall thickness in diastole: between groups (KN-93 1 and 10, KN-92 30 μmol/Kg, AC3-I transgenic, WT); for cardiac hypertrophy / myocardial contractility (positive inotropic effect): FIG. 7; for Left ventricular (LV) fractional shortening: unanesthetized mice, vs WT or KN-92 30 μmol/Kg
Source text: FIGS. 7 A-D. CaMKII inhibition improves contractile function after myocardial infarction surgery. […] P<0.001 by ANOVA and asterisks indicate a significant difference compared to WT using a Bonferroni-corrected t test. B. LV internal diameter (LVID) during diastole is a marker of LV chamber dilation. […] C. LV posterior wall (LVPW) wall thickness in diastole is a measure of LV hypertrophy of the non-infarcted wall.
Myocardial infarction surgery: Surgery is routinely performed at the Vanderbilt mouse physiology core laboratory and is essentially identical to other published reports^18 8.^14 In brief, mice are anesthetized (pentobarbital 33 μg/g and ketamine 33 μg/g, i.p.) and placed on a rodent respirator (tidal vol. 0.5 ml, rate 120 breaths/min), the chest opened with a left parasternal thoracotomy, and the region of the mid-left anterior descending artery ligated with 8-0 suture. The chest is closed (running 5-0 suture), and the animal weaned from the respirator. Wild-type mice typically develop heart failure, as assessed by increased lung wet:dry weights. Sham operations omit the ligation step. Approximately 75% of animals survive surgery with a successfully infarcted anterior wall.

protein kinase A = details: cited from earlier work
CaMKII [3] = assay: CaMKII inhibitory potency against a synthetic CaMKII substrate; type: biochemical; details: 'previous studies'
CaMKII isoforms = details: cited from earlier work
protein kinase C = details: cited from earlier work
CAN+ transgenic mice = assay: Echocardiography in calcineurin (CAN+) transgenic dilated cardiomyopathy model; details: AC3-I+/CAN+ vs CAN+ mice
[4] = diastole or systole, AC3-I transgenic vs WT littermates

Compound: KKALHRQEAVDCL [AC3-I]
- total CaMKII activity (CaMKII [1]; ventricular homogenates, compared to AC3-C mice and WT littermates): significantly reduced
- cardiac CaMKII activity (CaMKII [1]; whole heart homogenates, AC3-I transgenic mice vs WT littermates): significantly reduced
- Left ventricular fractional shortening (transgenic mice; baseline, AC3-I transgenic vs WT littermates): not different
- Echocardiographic left ventricular dimensions (transgenic mice; [4]): not significantly different
- Interventricular septal thickness (transgenic mice; [4]): not different
- Heart rate ([2]; 3 weeks after MI surgery, AC3-I transgenic compared to all other groups): significantly slower
- LV internal diameter (LVID) during diastole ([2]; 3 weeks after MI surgery): No significant differences
- LV posterior wall (LVPW) wall thickness in diastole ([2]; 3 weeks after MI surgery): No significant differences
- cardiac hypertrophy [2]: without affecting
- myocardial contractility (positive inotropic effect) [2]: increase
- Left ventricular fractional shortening ([2]; transgenically targeted AC3-I expression, after MI surgery, vs WT littermates): significantly better; also recorded: significantly greater
- activity against protein kinase A (protein kinase A): virtually devoid of activity
- IC50 (CaMKII [3]): 500 nM
- inhibition of CaMKII isoforms (CaMKII isoforms): inhibits all CaMKII isoforms
- activity against protein kinase C (protein kinase C): virtually devoid of activity
- heart rates (CAN+ transgenic mice): no significant differences

Compound: KLKALHAQERVDCL [AC3-C]
- total CaMKII activity (CaMKII [1]; AC3-C transgenic mice, FIG. 6): high
- Left ventricular fractional shortening (transgenic mice; AC3-C transgenic compared to AC3-I mice): significantly depressed
- left ventricular internal diameter (LVID) in diastole (transgenic mice; AC3-C transgenic vs AC3-I mice): significantly greater

Compound: COc1ccc(S(=O)(=O)Nc2ccccc2CN(C)C/C=C/c2ccc(Cl)cc2)cc1 [KN-92]
- LV internal diameter (LVID) during diastole ([2]; 3 weeks after MI surgery): No significant differences
- LV posterior wall (LVPW) wall thickness in diastole ([2]; 3 weeks after MI surgery): No significant differences

Compound: COc1ccc(S(=O)(=O)N(CCO)c2ccccc2CN(C)C/C=C/c2ccc(Cl)cc2)cc1 [KN-93]
- LV internal diameter (LVID) during diastole ([2]; 3 weeks after MI surgery): No significant differences
- LV posterior wall (LVPW) wall thickness in diastole ([2]; 3 weeks after MI surgery): No significant differences
- cardiac hypertrophy [2]: without affecting
- myocardial contractility (positive inotropic effect) [2]: increase
- Left ventricular (LV) fractional shortening ([2]; KN-93 1 μmol/Kg body weight daily, 3 weeks after MI surgery): significantly greater
- Left ventricular (LV) fractional shortening ([2]; KN-93 10 μmol/Kg body weight daily, 3 weeks after MI surgery): significantly greater
